Assay results from ChEMBL document CHEMBL6153099, “Fatuamide A, a Hybrid PKS/NRPS Metallophore from a Leptolyngbya sp. Marine Cyanobacterium Collected in American Samoa” (J Nat Prod, 2025).
The source made the active and inactive calls. No cut-off for these calls is given here.

Legend:
RAW264.7 = test: Antiinflammatory activity in LPS-induced mouse RAW264.7 cells assessed as reduction in NO production at 10 to 30 microg/ml preincubated for 24 hrs by Griess reagent based assay; format: functional, cell-based; settings: dose 10-30 µg/ml
NCI-H460 = test: Cytotoxicity against human NCI-H460 cells at 2 to 60000 nM incubated for 48 hrs by MTT assay; format: functional, cell-based; settings: dose 2-60000 nM

`C[C@H](C[C@@H](C)CCC(=O)N[C@@H](Cc1ccccc1)[C@H](O)C[C@H](O)CC(=O)N[C@@H](Cc1ccccc1)[C@H](O)CC(=O)NCC(=O)O)C[C@@H]1CSC(c2ccccc2O)=N1` was tested, and the Activity (RAW264.7) was “inactive” and the Activity (NCI-H460) was “Active”.
